# Laboratory results taken from patent US12324848B2, “Core shell silica particles and uses thereof as an anti-bacterial agent” (Colgate-Palmolive Company, priority 2013, dated 2025).
# Tested on: Chemostat Inoculum (bacteria cocktail with A. viscosus, S. oralis, V. parvula, L. casei, and F. nucleatum)
# Test: Resazurin anti-bacterial test (bacterial viability microassay)
# Format: cell-based
# Conditions: 1 hr incubation with test solution 1:1 in 1/4 strength trypticase soy broth, average of runs over 4-5 days, concentration as in toothpaste formula
# Procedure: The core shell silica (CSS) particles of the invention were testing for anti-bacterial activity using the resazurin anti-bacterial test assay wherein the reduction of resazurin is a measure of reduction of bacterial growth.
# All solutions are measured for the bacterial viability using resazurin microassay with Chemostat Inoculum (bacteria cocktail with A. viscosus, S. oralis, V. parvula, L. casei, and F. nucleatum) used in oral care product evaluation. Resazurin (7-Hydroxy-3H-phenoxazin-3-one 10-oxide) is a blue dye used as oxidation—reduction reaction, quantifies bacterial viability from color perception with respiring reaction effect.
# Each experiment is conducted with live and dead bacterial cocktail with A. viscosus, S. oralis, V. parvula, L. casei, and F. nucleatum using TSB broth (trypticase soy broth) and ethanol respectively and they were added at proper ratio to generate standard curve from 100% live bacterial cocktail to 100% dead bacterial cocktail collecting at a total of 12 points.
# The assay is performed using bacteria pellet from 1 ml Chemostat Inoculum and exposed with 1/4 strength trypticase soy broth: test solution at 1:1 ratio in Eppendorf tube. After 1 hr incubation further bacteria growth was deactivated adding 1 ml D/E Broth with proper mixing and collected pellet was rinsed with 1 ml TSB broth to remove D/E broth completely (D/E=Dey-Engley). […]
structure (smiles),measurement,value
"[Cl-].[Cl-].[Zn+2] [Positive control (1% ZnCl2 + water), zinc chloride]",% of viable bacteria,4.88%
